According to US20050032766A1, “Use of estrogenic compounds as anti-fungal agents” (priority 2003, published 2005):

Assays:
Assay type in all cases: cell-based
C. albicans [1] = experiment: C. albicans colony counts with 17β-estradiol in presence and absence of 2ME2 (Example 3); conditions: 5 hours; for Number of Colonies treated with estradiol and 2ME2: 1 μM 2ME2 with 1 nM 17β-estradiol; for Percentage of Inhibition: 1 μM 2ME2 with 1 nM 17β-estradiol vs estradiol alone; for Number of Colonies treated with estradiol: 1 nM 17β-estradiol alone
Experimental: (§1) The ability of 3 μM 2ME2 to inhibit the growth of ten different strains of C. albicans was investigated. Nine of these strains were clinically isolated and maintained by interval of subculture with Sabouraouds dextrose agar and storage at 4° C.; the other strain was purchased from ATCC. Yeast cells were cultured with nitrogen broth devoid of mammalian steroid hormones in the presence and absence of 2ME2. At 5 and 12 hours after the addition of 2ME2, a small volume of control and treated cultures was drawn and plated on Sabouraouds dextrose agar plates. The plates were placed at 37° C. and the colonies counted 24 hours later. Table I illustrates that micromolar concentrations 2ME2 are able to suppress the growth of 9/10 strains of C. albicans tested here.
In a separate experiment, 1 nM 17β-estradiol was added to the cultures of C. albicans cells in the presence and absence of 1 μM 2ME2 and the number of colonies of yeast cells cultured for 5 hours with the above steroids were counted as previously described.

C. albicans [2] = experiment: Growth inhibition of C. albicans strains by 2ME2, colony counts at 5 and 12 hours (Example 1); conditions: for Number of Treated Colonies at 5 hrs / Number of Treated Colonies at 12 hrs / Percentage of Inhibition at 12 hrs: 3 μM 2ME2
Experimental: as §1

C. albicans [3] = experiment: Repeat of the growth inhibition test, colony counts after 5 hours of culture (Example 2)
Experimental: as §1
The experiment described in Example 1 was repeated with 4 of the above strains and 3 newly isolated C. albicans trains. The following counts were taken from yeast cultures grown for 5 hours in the nitrogen base media in the presence and absence of micromolar concentrations 2ME2.

[4] = strain 2, micromolar concentrations 2ME2
[5] = strain 5, micromolar concentrations 2ME2
[6] = strain 8, micromolar concentrations 2ME2
[7] = strain 10, micromolar concentrations 2ME2
[8] = strain 11, micromolar concentrations 2ME2
[9] = strain 12, micromolar concentrations 2ME2
[10] = strain ATCC, micromolar concentrations 2ME2

**Q.** Which results are given for `COc1cc2c(cc1O)CC[C@@H]1[C@@H]2CC[C@]2(C)[C@@H](O)CC[C@@H]12` [2ME2, 2-Methoxyestradiol]?
**A.** Number of Colonies treated with estradiol and 2ME2 (C. albicans [1]; strain 2): 64 ± 2; Percentage of Inhibition (C. albicans [1]; strain 5): 43%; Number of Colonies treated with estradiol and 2ME2 (C. albicans [1]; strain 5): 39 ± 4; Percentage of Inhibition (C. albicans [1]; strain 8): 48%; Number of Colonies treated with estradiol and 2ME2 (C. albicans [1]; strain 8): 25 ± 3; Percentage of Inhibition (C. albicans [1]; strain 10): 56%; Number of Colonies treated with estradiol and 2ME2 (C. albicans [1]; strain 10): 23 ± 5; Percentage of Inhibition (C. albicans [1]; strain 11): 31%; Number of Colonies treated with estradiol and 2ME2 (C. albicans [1]; strain 11): 55 ± 6; Percentage of Inhibition (C. albicans [1]; strain 12): 53%; Number of Colonies treated with estradiol and 2ME2 (C. albicans [1]; strain 12): 56 ± 1; Percentage of Inhibition (C. albicans [1]; strain ATCC): 55%; Number of Colonies treated with estradiol and 2ME2 (C. albicans [1]; strain ATCC): 28 ± 12; strains of C. albicans whose growth is suppressed (C. albicans [2]; micromolar concentrations 2ME2, ten strains tested): 9/10; Number of Treated Colonies at 5 hrs (C. albicans [2]; strain 1): 16; Number of Treated Colonies at 12 hrs (C. albicans [2]; strain 1): 50; Percentage of Inhibition at 12 hrs (C. albicans [2]; strain 1): 57%; Number of Treated Colonies at 5 hrs (C. albicans [2]; strain 2): 51; Number of Treated Colonies at 12 hrs (C. albicans [2]; strain 2): >400; Number of Treated Colonies at 5 hrs (C. albicans [2]; strain 3): 14; Number of Treated Colonies at 12 hrs (C. albicans [2]; strain 3): 86; Percentage of Inhibition at 12 hrs (C. albicans [2]; strain 3): >78%; Number of Treated Colonies at 5 hrs (C. albicans [2]; strain 4): 17; Number of Treated Colonies at 12 hrs (C. albicans [2]; strain 4): 113; Percentage of Inhibition at 12 hrs (C. albicans [2]; strain 4): >72%; Number of Treated Colonies at 5 hrs (C. albicans [2]; strain 5): 14; Number of Treated Colonies at 12 hrs (C. albicans [2]; strain 5): 85; Percentage of Inhibition at 12 hrs (C. albicans [2]; strain 5): >79%; Number of Treated Colonies at 5 hrs (C. albicans [2]; strain 6): 32; Number of Treated Colonies at 12 hrs (C. albicans [2]; strain 6): 131; Percentage of Inhibition at 12 hrs (C. albicans [2]; strain 6): >67%; Number of Treated Colonies at 5 hrs (C. albicans [2]; strain 7): 13; Number of Treated Colonies at 12 hrs (C. albicans [2]; strain 7): 148; Percentage of Inhibition at 12 hrs (C. albicans [2]; strain 7): >63%; Number of Treated Colonies at 5 hrs (C. albicans [2]; strain 8): 14; Number of Treated Colonies at 12 hrs (C. albicans [2]; strain 8): 98; Percentage of Inhibition at 12 hrs (C. albicans [2]; strain 8): >75%; Number of Treated Colonies at 5 hrs (C. albicans [2]; strain 9): 15; Number of Treated Colonies at 12 hrs (C. albicans [2]; strain 9): 90; Percentage of Inhibition at 12 hrs (C. albicans [2]; strain 9): >77%; Number of Treated Colonies at 5 hrs (C. albicans [2]; strain ATCC): 15; Number of Treated Colonies at 12 hrs (C. albicans [2]; strain ATCC): 67; Percentage of Inhibition at 12 hrs (C. albicans [2]; strain ATCC): 70%; Percentage of Inhibition (C. albicans [3]; [4]): 70%; Treated Colonies (C. albicans [3]; [4]): 26 ± 7; Percentage of Inhibition (C. albicans [3]; [5]): 41%; Treated Colonies (C. albicans [3]; [5]): 58 ± 7; Percentage of Inhibition (C. albicans [3]; [6]): 50%; Treated Colonies (C. albicans [3]; [6]): 59 ± 7; Percentage of Inhibition (C. albicans [3]; [7]): 0%; Treated Colonies (C. albicans [3]; [7]): 51 ± 19; Percentage of Inhibition (C. albicans [3]; [8]): 14%; Treated Colonies (C. albicans [3]; [8]): 74 ± 16; Percentage of Inhibition (C. albicans [3]; [9]): 50%; Treated Colonies (C. albicans [3]; [9]): 77 ± 12; Percentage of Inhibition (C. albicans [3]; [10]): 44%; Treated Colonies (C. albicans [3]; [10]): 36 ± 6

**Q.** For `C[C@]12CC[C@@H]3c4ccc(O)cc4CC[C@H]3[C@@H]1CC[C@@H]2O` [estradiol, 17β-estradiol, reference compound], which “Number of Colonies treated with estradiol” value (C. albicans [1]; strain 2) is on record?
**A.** 58 ± 5

**Q.** What about the “Number of Colonies treated with estradiol” value (C. albicans [1]; strain 5) of the same compound?
**A.** 69 ± 13

**Q.** And the “Number of Colonies treated with estradiol” value (C. albicans [1]; strain 8)?
**A.** 48 ± 7

**Q.** And the “Number of Colonies treated with estradiol” value (C. albicans [1]; strain 10)?
**A.** 52 ± 2

**Q.** And the “Number of Colonies treated with estradiol” value (C. albicans [1]; strain 11)?
**A.** 80 ± 1

**Q.** What about the “Number of Colonies treated with estradiol” value (C. albicans [1]; strain 12) of the same compound?
**A.** 120

**Q.** And the “Number of Colonies treated with estradiol” value (C. albicans [1]; strain ATCC)?
**A.** 63 ± 8
